Experimental data as given in patent US20060063747A1, “Paroxetine cholate or cholic acid derivative salts, and composition comprising paroxetine and cholic acid or derivative thereof” (priority 2004, published 2006).
Where a name gives a salt, the structure may show the parent alone.

Assay: Stability comparison under severe conditions (0.3% hydrogen peroxide, 80° C., content by HPLC)
Assay type: physicochemical
Conditions: for Drug content, 24 hrs / Drug content, 48 hrs / Drug content, 72 hrs / Drug content, Initial / Drug content, 144 hrs / Drug content, 120 hrs: 1 mg/mL in 0.3% hydrogen peroxide, chamber at 80° C.
Protocol: Each of the drugs shown in Table 5 was completely dissolved in a 0.3% hydrogen peroxide solution at a concentration of 1 mg/mL. While storage under stressed conditions at 80° C., changes in the contents of the drugs were monitored. The 0.3% hydrogen peroxide solution is a solution commonly used to quickly determine the stability of drugs and provides stressed conditions for artificial acceleration of the oxidation of the drugs. The content analysis was conducted by HPLC in accordance with the paroxetine content analysis defined in USP.

Molecule	Drug content, 24 hrs	Drug content, 48 hrs	Drug content, 72 hrs	Drug content, Initial	Drug content, 144 hrs	Drug content, 120 hrs	Drug content, 48 hrs (hydrochloride)	Drug content, 120 hrs (hydrochloride)	Stability compared to other paroxetine salts (in words) (0.3% hydrogen peroxide, 80° C., HPLC)
paroxetine methanesulfonate	74.4%	31.8%	16.6%	100.0%					
Fc1ccc([C@@H]2CCNC[C@H]2COc2ccc3c(c2)OCO3)cc1.Fc1ccc([C@@H]2CCNC[C@H]2COc2ccc3c(c2)OCO3)cc1.O.O=C(O)C(O)C(O)C(=O)O.O=C(O)C(O)C(O)C(=O)O [Paroxetine tartarate]	81.3%		28.3%	100.0%	4.8%				
Fc1ccc([C@@H]2CCNC[C@H]2COc2ccc3c(c2)OCO3)cc1.O=C(O)[C@H]1OC(O)[C@H](O)[C@@H](O)[C@@H]1O [Paroxetine glucuronate]	92.8%	59.0%		100.0%		12.3%			
Fc1ccc([C@@H]2CCNC[C@H]2COc2ccc3c(c2)OCO3)cc1 [Paroxetine HCl, paroxetine hydrochloride]	84.5%			100.0%			53.8%	13.4%	
C[C@H](CCC(=O)NCC(=O)O)[C@H]1CC[C@H]2[C@@H]3[C@H](O)C[C@@H]4C[C@H](O)CC[C@]4(C)[C@H]3C[C@H](O)[C@]12C.Fc1ccc([C@@H]2CCNC[C@H]2COc2ccc3c(c2)OCO3)cc1 [Paroxetine glycocholate, paroxetine glycocholate]	96.8%	89.6%		100.0%		54.3%			highly stable
Fc1ccc([C@@H]2CCNC[C@H]2COc2ccc3c(c2)OCO3)cc1.O=S(=O)(O)c1ccc2ccccc2c1 [Paroxetine napsylate]	60.4%		16.1%	100.0%	3.5%				
